This assay relates to recombinant NL4-3 virus (Renilla luciferase in nef, Gag P373S). Nature of the assay: HIV cell culture assay (luciferase activity in MT-2 cells infected with NLRluc recombinant virus). Type of assay: cell-based. The following applies: NL43, MT-2 cells infected 4-5 days with NLRluc recombinant virus. The method, boiled down: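 MT-2 cells in RPMI/10% FBS were infected with recombinant NL4-3 (NLRluc), produced by 293T transfection and titered in MT-2 by luciferase. Serial inhibitor dilutions were present throughout a 4–5 day infection. Antiviral activity was quantified as Renilla luciferase signal via a modified Dual Luciferase read.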

pEC50: −log10 of the molar value.

On to `C=C(C)[C@@H]1CC[C@]2(CNCCC(=O)N3CCC(C(=O)O)CC3)CC[C@]3(C)[C@H](CC[C@@H]4[C@@]5(C)CC=C(c6ccc(C(=O)O)cc6)C(C)(C)[C@@H]5CC[C@]43C)[C@@H]12` [Example 104, 1-(3-(((1R,3aS,5aR,5bR,7aR,11aS,11bR,13aR,13bR)-9-(4-carboxyphenyl)-5a,5b,8,8,11a-pentamethyl-1-(prop-1-en-2-yl)-2,3,3a,4,5,5a,5b,6,7,7a,8,11,11a,11b,12,13,13a,13b-octadecahydro-1H-cyclopenta[a]chrysen-3a-yl)methylamino)propanoyl)piperidine-4-carboxylic acid], for which the pEC50 (class symbol) is more than 7.00.
On the same count and under the same terms, the result for `C=C(C)[C@@H]1CC[C@]2(CNCCC(=O)N3CCN(C)CC3)CC[C@]3(C)[C@H](CC[C@@H]4[C@@]5(C)CC=C(c6ccc(C(=O)O)cc6)C(C)(C)[C@@H]5CC[C@]43C)[C@@H]12` [Example 105, 4-((1R,3aS,5aR,5bR,7aR,11aS,11bR,13aR,13bR)-5a,5b,8,8,11a-pentamethyl-3a-((3-(4-methylpiperazin-1-yl)-3-oxopropylamino)methyl)-1-(prop-1-en-2-yl)-2,3,3a,4,5,5a,5b,6,7,7a,8,11,11a,11b,12,13,13a,13b-octadecahydro-1H-cyclopenta[a]chrysen-9-yl)benzoic acid] reads more than 7.00.
Same read-out and setting: the result for `C=C(C)[C@@H]1CC[C@]2(CNCCC(=O)N3CC(F)(F)C(F)(F)C3)CC[C@]3(C)[C@H](CC[C@@H]4[C@@]5(C)CC=C(c6ccc(C(=O)O)cc6)C(C)(C)[C@@H]5CC[C@]43C)[C@@H]12` [Example 106, 4-((1R,3aS,5aR,5bR,7aR,11aS,11bR,13aR,13bR)-5a,5b,8,8,11a-pentamethyl-3a-((3-oxo-3-(3,3,4,4-tetrafluoropyrrolidin-1-yl)propylamino)methyl)-1-(prop-1-en-2-yl)-2,3,3a,4,5,5a,5b,6,7,7a,8,11,11a,11b,12,13,13a,13b-octadecahydro-1H-cyclopenta[a]chrysen-9-yl)benzoic acid] reads more than 7.00; that for `C=C(C)[C@@H]1CC[C@]2(CNCCC(=O)N3CCOCC3)CC[C@]3(C)[C@H](CC[C@@H]4[C@@]5(C)CC=C(c6ccc(C(=O)O)cc6)C(C)(C)[C@@H]5CC[C@]43C)[C@@H]12` [Example 107, 4-((1R,3aS,5aR,5bR,7aR,11aS,11bR,13aR,13bR)-5a,5b,8,8,11a-pentamethyl-3a-((3-morpholino-3-oxopropylamino)methyl)-1-(prop-1-en-2-yl)-2,3,3a,4,5,5a,5b,6,7,7a,8,11,11a,11b,12,13,13a,13b-octadecahydro-1H-cyclopenta[a]chrysen-9-yl)benzoic acid], more than 7.00.
On the same count and under the same terms, the result for `C=C(C)[C@@H]1CC[C@]2(CNCC(=O)N3CCS(=O)(=O)CC3)CC[C@]3(C)[C@H](CC[C@@H]4[C@@]5(C)CC=C(c6ccc(C(=O)O)cc6)C(C)(C)[C@@H]5CC[C@]43C)[C@@H]12` [Example 108, 4-((1R,3aS,5aR,5bR,7aR,11aS,11bR,13aR,13bR)-3a-(((2-(1,1-dioxido-4-thiomorpholinyl)-2-oxoethyl)amino)methyl)-1-isopropenyl-5a,5b,8,8,11a-pentamethyl-2,3,3a,4,5,5a,5b,6,7,7a,8,11,11a,11b,12,13,13a,13b-octadecahydro-1H-cyclopenta[a]chrysen-9-yl)benzoic acid] reads more than 7.00; that for `C=C(C)[C@@H]1CC[C@]2(CNCC(=O)N3CCCC3)CC[C@]3(C)[C@H](CC[C@@H]4[C@@]5(C)CC=C(c6ccc(C(=O)O)cc6)C(C)(C)[C@@H]5CC[C@]43C)[C@@H]12` [Example 109, 4-((1R,3aS,5aR,5bR,7aR,11aS,11bR,13aR,13bR)-5a,5b,8,8,11a-pentamethyl-3a-((2-oxo-2-(pyrrolidin-1-yl)ethylamino)methyl)-1-(prop-1-en-2-yl)-2,3,3a,4,5,5a,5b,6,7,7a,8,11,11a,11b,12,13,13a,13b-octadecahydro-1H-cyclopenta[a]chrysen-9-yl)benzoic acid], more than 7.00.
For the compound `C=C(C)[C@@H]1CC[C@]2(CNCC(=O)N3CCCCC3)CC[C@]3(C)[C@H](CC[C@@H]4[C@@]5(C)CC=C(c6ccc(C(=O)O)cc6)C(C)(C)[C@@H]5CC[C@]43C)[C@@H]12` [Example 110, 4-((1R,3aS,5aR,5bR,7aR,11aS,11bR,13aR,13bR)-5a,5b,8,8,11a-pentamethyl-3a-((2-oxo-2-(piperidin-1-yl)ethylamino)methyl)-1-(prop-1-en-2-yl)-2,3,3a,4,5,5a,5b,6,7,7a,8,11,11a,11b,12,13,13a,13b-octadecahydro-1H-cyclopenta[a]chrysen-9-yl)benzoic acid], the pEC50 (class symbol) was more than 7.00.
On the same count and under the same terms, then `C=C(C)[C@@H]1CC[C@]2(CNCC(=O)N3CCC(C(=O)OCC)CC3)CC[C@]3(C)[C@H](CC[C@@H]4[C@@]5(C)CC=C(c6ccc(C(=O)O)cc6)C(C)(C)[C@@H]5CC[C@]43C)[C@@H]12` [Example 111, 4-((1R,3aS,5aR,5bR,7aR,11aS,11bR,13aR,13bR)-3a-((2-(4-(ethoxycarbonyl)piperidin-1-yl)-2-oxoethylamino)methyl)-5a,5b,8,8,11a-pentamethyl-1-(prop-1-en-2-yl)-2,3,3a,4,5,5a,5b,6,7,7a,8,11,11a,11b,12,13,13a,13b-octadecahydro-1H-cyclopenta[a]chrysen-9-yl)benzoic acid], with more than 7.00; and `C=C(C)[C@@H]1CC[C@]2(CNCC(=O)N3CCC(C(=O)O)CC3)CC[C@]3(C)[C@H](CC[C@@H]4[C@@]5(C)CC=C(c6ccc(C(=O)O)cc6)C(C)(C)[C@@H]5CC[C@]43C)[C@@H]12` [Example 112, 1-(2-(((1R,3aS,5aR,5bR,7aR,11aS,11bR,13aR,13bR)-9-(4-carboxyphenyl)-5a,5b,8,8,11a-pentamethyl-1-(prop-1-en-2-yl)-2,3,3a,4,5,5a,5b,6,7,7a,8,11,11a,11b,12,13,13a,13b-octadecahydro-1H-cyclopenta[a]chrysen-3a-yl)methylamino)acetyl)piperidine-4-carboxylic acid], with more than 7.00.
On the same count and under the same terms, the result for `C=C(C)[C@@H]1CC[C@]2(CNCC(=O)N3CCN(S(=O)(=O)N(C)C)CC3)CC[C@]3(C)[C@H](CC[C@@H]4[C@@]5(C)CC=C(c6ccc(C(=O)O)cc6)C(C)(C)[C@@H]5CC[C@]43C)[C@@H]12` [Example 113, 4-((1R,3aS,5aR,5bR,7aR,11aS,11bR,13aR,13bR)-3a-((2-(4-(N,N-dimethylsulfamoyl)piperazin-1-yl)-2-oxoethylamino)methyl)-5a,5b,8,8,11a-pentamethyl-1-(prop-1-en-2-yl)-2,3,3a,4,5,5a,5b,6,7,7a,8,11,11a,11b,12,13,13a,13b-octadecahydro-1H-cyclopenta[a]chrysen-9-yl)benzoic acid] reads more than 7.00; that for `C=C(C)[C@@H]1CC[C@]2(CNCC(=O)N3CCC[C@@H]3C(=O)O)CC[C@]3(C)[C@H](CC[C@@H]4[C@@]5(C)CC=C(c6ccc(C(=O)O)cc6)C(C)(C)[C@@H]5CC[C@]43C)[C@@H]12` [Example 114, (R)-1-(2-(((1R,3aS,5aR,5bR,7aR,11aS,11bR,13aR,13bR)-9-(4-carboxyphenyl)-5a,5b,8,8,11a-pentamethyl-1-(prop-1-en-2-yl)-2,3,3a,4,5,5a,5b,6,7,7a,8,11,11a,11b,12,13,13a,13b-octadecahydro-1H-cyclopenta[a]chrysen-3a-yl)methylamino)acetyl)pyrrolidine-2-carboxylic acid], more than 7.00.
`C=C(C)[C@@H]1CC[C@]2(CNCC(=O)N3CCC(F)(F)CC3)CC[C@]3(C)[C@H](CC[C@@H]4[C@@]5(C)CC=C(c6ccc(C(=O)O)cc6)C(C)(C)[C@@H]5CC[C@]43C)[C@@H]12` [Example 115, 4-((1R,3aS,5aR,5bR,7aR,11aS,11bR,13aR,13bR)-3a-((2-(4,4-difluoropiperidin-1-yl)-2-oxoethylamino)methyl)-5a,5b,8,8,11a-pentamethyl-1-(prop-1-en-2-yl)-2,3,3a,4,5,5a,5b,6,7,7a,8,11,11a,11b,12,13,13a,13b-octadecahydro-1H-cyclopenta[a]chrysen-9-yl)benzoic acid]: the negative logarithm of the EC50 (pEC50) (numeric value) was 8.52.
Consider `C=C(C)[C@@H]1CC[C@]2(CNC3(C(=O)N4CCS(=O)(=O)CC4)CC3)CC[C@]3(C)[C@H](CC[C@@H]4[C@@]5(C)CC=C(c6ccc(C(=O)O)cc6)C(C)(C)[C@@H]5CC[C@]43C)[C@@H]12` [Example 116, 4-((1R,3aS,5aR,5bR,7aR,11aS,11bR,13aR,13bR)-3a-(((1-((1,1-dioxido-4-thiomorpholinyl)carbonyl)cyclopropyl)amino)methyl)-1-isopropenyl-5a,5b,8,8,11a-pentamethyl-2,3,3a,4,5,5a,5b,6,7,7a,8,11,11a,11b,12,13,13a,13b-octadecahydro-1H-cyclopenta[a]chrysen-9-yl)benzoic acid], for which the pEC50 (class symbol) was more than 7.00.
Still for that read-out and setting: then `C=C(C)[C@@H]1CC[C@]2(CNCCC(=O)N3CCC(F)(F)CC3)CC[C@]3(C)[C@H](CC[C@@H]4[C@@]5(C)CC=C(c6ccc(C(=O)O)cc6)C(C)(C)[C@@H]5CC[C@]43C)[C@@H]12` [Example 117, 4-((1R,3aS,5aR,5bR,7aR,11aS,11bR,13aR,13bR)-3a-((3-(4,4-difluoropiperidin-1-yl)-3-oxopropylamino)methyl)-5a,5b,8,8,11a-pentamethyl-1-(prop-1-en-2-yl)-2,3,3a,4,5,5a,5b,6,7,7a,8,11,11a,11b,12,13,13a,13b-octadecahydro-1H-cyclopenta[a]chrysen-9-yl)benzoic acid], with more than 7.00.

These data come from US8748415B2 (priority 2011, dated 2014).
